Experiment in all cases: MIC by broth microdilution (CLSI)
What all share (type): cell-based

One experiment relates to S. aureus HAV#216, cfr. The note with it: Staphylococcus aureus; cfr; CaMHB, 24 h incubation; read-out: MIC S. aureus HAV#216, cfr. In outline:
(§1)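 CLSI broth microdilution in cation-adjusted Mueller-Hinton broth, inoculum 5×10^5 CFU/mL, compounds typically 64-0.06 μg/mL with 2.5% final DMSO. MIC is the lowest concentration preventing visible growth after 24 h. For P. aeruginosa, broth was pre-treated with Chelex 100 resin.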

A further experiment relates to E. coli HAV#040, LptD. The note with it: Escherichia coli, 24 h, read-out: MIC E. coli HAV#040, LptD. In outline:
as §1

For experiment [1], the system named is E. coli ATCC 25922 (HAV#006). The settings on record: Escherichia coli, ATCC25922, 24 h, read-out: MIC E. coli ATCC 25922. Put shortly:
as §1

Experiment [2] has as its system A. baumannii ATCC 19606 (HAV#010). The note with it: Acinetobacter baumannii, ATCC19606, 24 h, HAV#010, ATCC 19606; CaMHB, 24 h incubation; read-out: MIC A. baumannii ATCC 19606. Put shortly: as §1
In experiment [3] the test system is E. faecium HAV#318, VRE; clinical. The note with it: Enterococcus faecium, CaMHB, 24 h incubation, read-out: MIC E. faecium HAV#318, VRE. In outline:
as §1

For the next experiment, the system named is E. coli HAV#038, ΔTolC. The settings on record: Escherichia coli, 24 h, read-out: MIC E. coli HAV#038, ΔTolC. Put shortly:
as §1

Experiment [4] has as its system K. pneumoniae HAV#402, FQ-R. The settings on record: Klebsiella pneumoniae; FQ-R; CaMHB, 24 h incubation; read-out: MIC K. pneumoniae HAV#402, FQ-R. Put shortly: as §1
Experiment [5] has as its system S. aureus ATCC 29213 (HAV#001). The note with it: Staphylococcus aureus, ATCC29213, 24 h, read-out: MIC S. aureus ATCC 29213. In outline: as §1
Experiment [6] has as its system S. aureus HAV#031, c-ermA. The settings on record: Staphylococcus aureus; c-ermA; CaMHB, 24 h incubation; read-out: MIC S. aureus HAV#031, c-ermA. Put shortly: as §1
The next experiment relates to S. aureus Clinical (cfr). The settings on record: Staphylococcus aureus, 24 h, read-out: MIC S. aureus Clinical (cfr). In outline: as §1
The subject of the next experiment is E. coli ΔtolC. The settings on record: Escherichia coli, 24 h, read-out: MIC E. coli ΔtolC, ΔtolC; CaMHB, 24 h incubation. Put shortly: as §1
Another experiment deals with S. pneumoniae c-ermB. The settings on record: Streptococcus pneumoniae, 24 h, read-out: MIC S. pneumoniae c-ermB. In outline:
as §1

In another experiment the test system is K. pneumoniae JMI-991193. The note with it: Klebsiella pneumoniae, JMI991193, 24 h, read-out: MIC K. pneumoniae JMI-991193. Put shortly:
as §1

The subject of another experiment is S. aureus MMX 3035. The settings on record: Staphylococcus aureus, MMX3035, 24 h, read-out: MIC S. aureus MMX 3035. In outline: as §1
A further experiment deals with E. coli lptD mutant. The settings on record: Escherichia coli, 24 h, read-out: MIC E. coli lptD mutant, lptD mutant / ΔlptD mutant; CaMHB, 24 h incubation. Put shortly: as §1
Experiment [7] relates to E. faecalis ATCC 29212 (HAV#005). The note with it: Enterococcus faecalis, ATCC29212, 24 h, read-out: MIC E. faecalis ATCC 29212. Put shortly: as §1
The test system of a further experiment is E. faecium JMI-990536. The settings on record: Enterococcus faecium, JMI990536, 24 h, JMI-990536; CaMHB, 24 h incubation; read-out: MIC E. faecium JMI-990536. Put shortly:
as §1

Another experiment concerns E. coli Clinical (armA). The note with it: Escherichia coli, 24 h, read-out: MIC E. coli Clinical (armA). In outline: as §1
The mark [8] stands for this setting: HAV#006, ATCC 25922, CaMHB, 24 h incubation.
The mark [9] stands for this setting: HAV#001, ATCC 29213, CaMHB, 24 h incubation.

Where a name gives a salt, the structure may show the parent alone. Read-outs that look alike come from different tables or passages of the source.

For the compound `CC(C)C[C@@H]1CCO[C@@H]2[C@H](CN[C@@H]2C(=O)N[C@H]2[C@H]3OC(SC/C=C/CC2(C)C)[C@H](O)C(O)C3O)C1` (single isomer, unassigned) [FSA1504066A, formate salt], the MIC in the experiment with S. aureus HAV#216, cfr is over 64 µg/mL; with E. coli HAV#040, LptD it was 2 µg/mL; in experiment [1] (setting [8]), 32 µg/mL; in [2], 8 µg/mL; in experiment [3], 1 µg/mL; with E. coli HAV#038, ΔTolC, 1 µg/mL. The MIC in [4] was 32 µg/mL; in [5] (setting [9]) it was at most 0.06 µg/mL; in experiment [6], 4 µg/mL.

On to `CC(C)C[C@@H]1CCO[C@@H]2[C@H](CN[C@@H]2C(=O)N[C@H]2C3OC(SC/C=C\CC2(C)C)C(O)C(O)C3O)C1` (single isomer, unassigned) [FSA1504066B, formate salt], for which the MIC was over 64 µg/mL in the experiment with S. aureus HAV#216, cfr; 64 µg/mL with E. coli HAV#040, LptD; 64 µg/mL in [1] (setting [8]); 64 µg/mL in [2]; 4 µg/mL in [3]; 32 µg/mL in the experiment with E. coli HAV#038, ΔTolC. For the same compound, the MIC was 64 µg/mL in experiment [4], 0.5 µg/mL in [5] (setting [9]) and 32 µg/mL in experiment [6].

With `CC(C)C[C@@H]1CCO[C@@H]2[C@H](CN[C@@H]2C(=O)N[C@@H]2C/C=C\C[C@H](CO)S[C@H]3O[C@H]2[C@H](O)[C@H](O)[C@H]3O)C1` [FSA1606033, (4S,5aS,8S,8aR)-4-isobutyl-N-((1R,3R,8R,9R,10R,11S,12R,Z)-10,11,12-trihydroxy-3-(hydroxymethyl)-13-oxa-2-thiabicyclo[7.3.1]tridec-5-en-8-yl) octahydro-2H-oxepino[2,3-c]pyrrole-8-carboxamide hydrochloride salt], the MIC with S. aureus Clinical (cfr) (Clinical (cfr), CaMHB, 24 h incubation) is 32 µg/mL; in the experiment with E. coli ΔtolC it was 1 µg/mL; in experiment [1] (setting [8]), 16 µg/mL; with S. pneumoniae c-ermB, 4 µg/mL; in the experiment on K. pneumoniae JMI-991193 (JMI-991193, CaMHB, 24 h incubation) it was over 64 µg/mL; in the experiment on S. aureus MMX 3035 (MMX 3035, CaMHB, 24 h incubation) it was 16 µg/mL. The MIC in experiment [2] was 64 µg/mL; in the experiment with E. coli lptD mutant it was 4 µg/mL; in experiment [7] (HAV#005, ATCC 29212, CaMHB, 24 h incubation), 1 µg/mL; in experiment [5] (setting [9]) it was 1 µg/mL; in the experiment with E. faecium JMI-990536 it was 16 µg/mL.

With `CC(C)C[C@@H]1CCO[C@@H]2[C@H](CN[C@@H]2C(=O)N[C@@H]2C/C=C\C[C@H](CN)S[C@H]3O[C@H]2[C@H](O)[C@H](O)[C@H]3O)C1` [FSA1608082, (4S,5aS,8S,8aR)—N-((1R,3R,8R,9R,10R,11S,12R,Z)-3-(aminomethyl)-10,11,12-trihydroxy-13-oxa-2-thiabicyclo[7.3.1]tridec-5-en-8-yl)-4-isobutyloctahydro-2H-oxepino[2,3-c]pyrrole-8-carboxamide hydrochloride salt], the MIC was 16 µg/mL in the experiment with S. aureus Clinical (cfr); 2 µg/mL in the experiment on E. coli ΔtolC; 64 µg/mL in the experiment on E. coli Clinical (armA); 32 µg/mL in [1]; over 64 µg/mL in the experiment with K. pneumoniae JMI-991193; 16 µg/mL in the experiment on S. aureus MMX 3035. The MIC was 1 µg/mL with E. coli lptD mutant, 2 µg/mL in [7] and 1 µg/mL in experiment [5].

Regarding `CC(C)C[C@@H]1CCO[C@@H]2[C@H](CN[C@@H]2C(=O)N[C@@H]2C/C=C\C[C@@H](CN)S[C@H]3O[C@H]2[C@H](O)[C@H](O)[C@H]3O)C1` [FSA1608083, (4S,5aS,8S,8aR)—N-((1R,3S,8R,9R,10R,11S,12R,Z)-3-(aminomethyl)-10,11,12-trihydroxy-13-oxa-2-thiabicyclo[7.3.1]tridec-5-en-8-yl)-4-isobutyloctahydro-2H-oxepino[2,3-c]pyrrole-8-carboxamide hydrochloride salt], the MIC in the experiment on S. aureus Clinical (cfr) is 32 µg/mL; in the experiment on E. coli ΔtolC it was 2 µg/mL; with E. coli Clinical (armA), 64 µg/mL; in [1], 16 µg/mL; in the experiment on K. pneumoniae JMI-991193, over 64 µg/mL; in the experiment on S. aureus MMX 3035, 16 µg/mL. The MIC (in the experiment on E. coli lptD mutant; in experiment [7]; in experiment [5]) was 1 µg/mL throughout.

On to `CC(C)C[C@@H]1CCO[C@@H]2[C@H](CN[C@@H]2C(=O)N[C@@H]2C/C=C\C[C@@H](CNC(=O)c3ccc(F)cc3)S[C@H]3O[C@H]2[C@H](O)[C@H](O)[C@H]3O)C1` [FSA1608088, (4S,5aS,8S,8aR)—N-((1R,3S,8R,9R,10R,11S,12R,Z)-3-((4-fluorobenzamido)methyl)-10,11,12-trihydroxy-13-oxa-2-thiabicyclo[7.3.1]tridec-5-en-8-yl)-4-isobutyloctahydro-2H-oxepino[2,3-c]pyrrole-8-carboxamide formate salt], for which the MIC in the experiment with S. aureus Clinical (cfr) amounted to 8 µg/mL; in the experiment on E. coli ΔtolC, 2 µg/mL; in the experiment with E. coli Clinical (armA), 16 µg/mL; in experiment [1], 8 µg/mL; in the experiment on K. pneumoniae JMI-991193, 32 µg/mL; in the experiment with S. aureus MMX 3035, 8 µg/mL. In addition, the MIC in the experiment with E. coli lptD mutant was determined as 0.5 µg/mL; in [7], 1 µg/mL; in [5], 1 µg/mL.

On to `CC(C)C[C@@H]1CCO[C@@H]2[C@H](CN[C@@H]2C(=O)N[C@@H]2C/C=C\C[C@H](CNC(=O)c3ccc(F)cc3)S[C@H]3O[C@H]2[C@H](O)[C@H](O)[C@H]3O)C1` [FSA1608089, (4S,5aS,8S,8aR)—N-((1R,3R,8R,9R,10R,11S,12R,Z)-3-((4-fluorobenzamido)methyl)-10,11,12-trihydroxy-13-oxa-2-thiabicyclo[7.3.1]tridec-5-en-8-yl)-4-isobutyloctahydro-2H-oxepino[2,3-c]pyrrole-8-carboxamide formate salt], for which the MIC with S. aureus Clinical (cfr) was 8 µg/mL; in the experiment with E. coli ΔtolC it was 2 µg/mL; in the experiment on E. coli Clinical (armA), 64 µg/mL; in experiment [1] it was 16 µg/mL; with K. pneumoniae JMI-991193, over 64 µg/mL; with S. aureus MMX 3035 it was 8 µg/mL. Besides, the MIC in the experiment on E. coli lptD mutant is 1 µg/mL; in experiment [7] it was 1 µg/mL; in [5], 2 µg/mL.

Regarding `CC(C)C[C@@H]1CCO[C@@H]2[C@H](CN[C@@H]2C(=O)N[C@H]2[C@H]3O[C@H](S[C@H](CF)C/C=C\[C@H]2C)[C@H](O)[C@@H](O)[C@H]3O)C1` [FSA1609034, (4S,5aS,8S,8aR)—N-((1R,3S,7R,8R,9R,10R,11S,12R,Z)-3-(fluoromethyl)-10,11,12-trihydroxy-7-methyl-13-oxa-2-thiabicyclo[7.3.1]tridec-5-en-8-yl)-4-isobutyloctahydro-2H-oxepino[2,3-c]pyrrole-8-carboxamide formate salt], the MIC in the experiment on S. aureus Clinical (cfr) was 0.25 µg/mL; with E. coli ΔtolC, at most 0.06 µg/mL; in the experiment on E. coli Clinical (armA), 2 µg/mL; in experiment [1] it was 1 µg/mL; in the experiment on K. pneumoniae JMI-991193 it was 2 µg/mL; with S. aureus MMX 3035, 0.25 µg/mL. The MIC is 0.25 µg/mL with E. coli lptD mutant, at most 0.06 µg/mL in experiment [7] and at most 0.06 µg/mL in experiment [5].
